The text below walks through data of patent US8853244B2, “Thiophene-carboxamides useful as inhibitors of protein kinases” (Vertex Pharmaceuticals Incorporated, priority 2006, dated 2014).

The assay concerns the target T1, Plk1 (Homo sapiens, UniProt P53350).
T1 construct: in the presence of 15 nM Plk1 (A20-K338)
Kind of assay: Plk1 inhibition assay (radioactive-phosphate incorporation). Type of assay: biochemical. The conditions noted are these: Ki(app). Here is the method:
The compounds of the present invention are evaluated as inhibitors of human PLK kinase using the following assays.
Compounds were screened for their ability to inhibit Plk1 using a radioactive-phosphate incorporation assay. Assays were carried out in a mixture of 25 mM HEPES (pH 7.5), 10 mM MgCl2, and 1 mM DTT. Final substrate concentrations were 50 μM [γ-33P]ATP (136 mCi 33P ATP/mmol ATP, Amersham Pharmacia Biotech/Sigma Chemicals) and 10 μM peptide (SAM68 protein Δ332-443). Assays were carried out at 25° C. in the presence of 15 nM Plk1 (A20-K338). An assay stock buffer solution was prepared containing all of the reagents listed above, with the exception of ATP and the test compound of interest. 30 μL of the stock solution was placed in a 96 well plate followed by addition of 2 μL of DMSO stock containing serial dilutions of the test compound (typically starting from a final concentration of 10 μM with 2-fold serial dilutions) in duplicate (final DMSO concentration 5%). The plate was pre-incubated for 10 minutes at 25° C. and the reaction initiated by addition of 8 μL [γ-33P]ATP (final concentration 50 μM). […]
After removing mean background values for all of the data points, Ki(app) data were calculated from non-linear regression analysis of the initial rate data using the Prism software package (GraphPad Prism version 3.0cx for Macintosh, GraphPad Software, San Diego Calif., USA). […]

T1 sequence (P53350 20-338): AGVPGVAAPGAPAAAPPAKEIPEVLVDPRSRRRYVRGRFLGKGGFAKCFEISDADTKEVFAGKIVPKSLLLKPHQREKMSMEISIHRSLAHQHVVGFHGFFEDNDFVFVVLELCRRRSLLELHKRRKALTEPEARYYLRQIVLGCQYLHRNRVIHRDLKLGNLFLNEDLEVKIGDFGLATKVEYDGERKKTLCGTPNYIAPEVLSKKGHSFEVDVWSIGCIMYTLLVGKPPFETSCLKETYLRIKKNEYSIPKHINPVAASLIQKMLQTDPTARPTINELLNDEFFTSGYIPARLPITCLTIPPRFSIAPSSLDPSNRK

Consider `CC(Oc1cc(-c2cc(-c3cccc(Cl)c3)cnc2N)sc1C(N)=O)c1ccccc1Cl` (stereo not shown) [I-3, 5-[2-Amino-5-(3-chloro-phenyl)-pyridin-3-yl]-3-[1-(2-chloro-phenyl)-ethoxy]-thiophene-2-carboxylic acid amide], for which the Ki is below 10 nM.
